Laboratory results: patent US6878690B2, “Compounds and methods” (PharmAxis Pty Ltd., priority 2000, dated 2005)
Values joined by “and” are separate entries in the source; they are usually repeats but may differ in a detail not shown here. Equal values may be shown once.

What was measured:
[1] = system: passively transferred EAE; assay: Passively transferred EAE induced with encephalitogenic MBP-specific T cell line (Example 23); assay type: in vivo, Lewis rats
Description: In order to study the effect of the agents of the present invention in vivo on a disease caused by T lymphocyte migration into a specific tissue, experiments were performed in the Lewis rat model of passively transferred EAE. Here, myelin basic protein (MBP)-specific T lymphocyte cell lines were generated from the draining lymph nodes of Lewis rats that had been immunised with MBP in Freund's complete adjuvant essentially according to the method of Ben-Nun et al. (1981) as described in Example 8. Thus, in this manner, donor T lymphocytes were generated from female 10 to 12 week old Lewis rats weighing 150 to 200 g. These rats were injected intradermally in a footpad of each hind foot with an emulsion of Guinea pig myelin basic protein (MBP; prepared according to the method of Deibler et al., 1972; incorporated herein by reference) in Freund's complete adjuvant (0.05 ml). The adjuvant emulsion was prepared by emulsifying equal volumes of a mixture of light mineral oil (Sigma) and normal saline containing Guinea pig myelin basic protein (0.5 mg/ml) and Mycobacterium butyricum (4 mg/ml; Difco). Thus, the total dose per rat was 50 micrograms of MBP and 400 micrograms of M. butyricum. Approximately 11 days following injection, the rats were euthanased and the draining lymph nodes (popliteal and inguinal) removed aseptically by blunt dissection and placed into mixed lymphocyte culture medium. This medium was prepared in the normal fashion from Dulbecco's Modified Eagle's Medium (DMEM; GIBCO, Grand Island, N.Y.) supplemented with glucose, folic acid, L-asparagine, sodium bicarbonate, L-glutamine, sodium pyruvate, HEPES, 2-mercaptoethanol (5×10^−5 M), penicillin, streptomycin, neomycin, and 2% fetal calf serum. A single cell suspension was prepared from the lymph nodes in the usual manner by gently pushing the nodes through a stainless steel screen. The cells were washed twice in the culture medium and following this procedure, any red blood cells were lysed in the usual manner by treating with a solution of ammonium chloride, EDTA and sodium hydrogen carbonate (pH 7.3) and the preparation strained (Falcon 2350 cell strainer). The cells were washed again in the lymphocyte culture medium. All cell preparative steps were performed on ice. These cells were cultured asceptically for 72 hours at 37° C. in a humidified atmosphere containing 7.5% carbon dioxide at a concentration of 5 million cells per milliliter in the presence of MBP (0.06 mg/ml). The cells were collected and the lymphoblasts were isolated by centrifugation on a Ficoll (Pharmacia, Uppsala, Sweden) gradient in an identical manner to that described by Ben Nun et al. (1981). The fraction containing ≧90% lymphoblasts was cultured and propagated in Eagle's medium supplemented with 15% of a concanavalin A-stimulated lymphocyte supernatant to provide growth factors, 10% fetal calf serum, nonessential amino acids (Bio-Lab, Jerusalem, Israel); sodium pyruvate, 2-mercapto ethanol and antibiotics without added antigen. The cells were plated in 100 mm petri dishes at a concentration of 0.2 million cells/ml and replated every 3 or 4 days. Prior to transfer into Lewis recipients, the cells were restimulated in the presence of MBP (0.01 mg/ml) and irradiated syngeneic thymocytes for 4 days.
These cells were highly encephalitogenic sine as few as 500,000 cells were capable of inducing disease when injected into naïve Lewis rats. Thus, in a typical experiment a group of 5 female Lewis rats, approximately 9 weeks old, weighing 110±15 grams were anesthetised with diethyl ether and implanted with mini-osmotic pumps (Alzet 2002, Alza Corp., Palo Alto Calif., USA) containing phosphoric acid mono-(6-propyl-3,4,5-trihydroxy-tetrahydro-pyran-2-ylmethyl) ester mono sodium salt dissolved in normal saline at a concentration that delivered the drug at a rate of 45 mg/kg/rat/day. […]

[2] = system: DTH response to 2,4-dinitrofluorobenzene (DNFB); assay: Delayed-type hypersensitivity (DTH) response to DNFB, ear swelling; assay type: in vivo, Balb/C mice
Source text: In the present Example, a murine model of Type IV hypersensitivity or delayed-type hypersensitivity (DTH) response to cutaneous contact with the chemical hapten 2,4-dinitrofluorobenzene (DNFB) (Aldrich Chemical Company Inc, USA) was used as a model to measure the anti-inflammatory effects of compounds of the present invention. Specific pathogen-free 8-12 week old female Balb/C mice, weighing 19-21 g, were sensitised in a similar manner to that described by Klimuk et al., (Klimuk et al., 1999) by applying a solution of DNFB (0.5% in acetone:olive oil (4:1, v/v); 30 microliters,) onto a 2 cm^2 shaved area of the abdomen. After 7 days, the animals were anesthetised with diethyl ether and 8 microliters of DNFB (0.35% in acetone:olive oil (4:1, v/v) was applied to the dorsal and ventral surfaces of the right pinna. Prior to regaining consciousness, the mice were implanted intraperitoneally with Alzet 2001 mini-osmotic pumps (Alza Corp., Palo Alto Calif., USA) containing phosphoric acid mono-[6-(3-hexyloxy-propyl)-3,4,5-trihydroxy-tetrahydro-pyran-2-ylmethyl] ester, sodium salt in normal saline. The dose delivered was 50 mg/kg/day. Control animals for this group received saline delivered in identical mini-osmotic pumps. A second experimental group of mice received phosphoric acid mono-[3-(3,4,5-trihydroxy-6-phosphonooxymethyl-tetrahydro-pyran-2-yl)-propyl] ester disodium salt via one-week delivery Alzet 2001 mini-osmotic pumps implanted intraperitoneally. This compound was delivered at a dose of 40 mg/kg/day. Control animals for this group received saline delivered in identical mini-osmotic pumps. In a third experiment a separate group of mice received (3,4,5-trihydroxy-6-phosphonooxymethyl-tetrahydro-pyran-2-yl)-acetic acid disodium salt via one-week delivery Alzet 2001 mini-osmotic pumps that were placed intraperitoneally. This compound was delivered at 45 mg/kg/day. The control group for this experiment received identical mini-osmotic pumps containing normal saline. In a fourth experiment a group of mice received 3-phenyl-2-[2-(3,4,5-trihydroxy-6-phosphonooxymethyl-tetrahydro-pyran-2-yl)-acetylamino]-propionic acid monosodium salt via one-week delivery Alzet 2001 mini-osmotic pumps that were placed subcutaneously. This compound was delivered at 62 mg/kg/day. The control group for this experiment received identical mini-osmotic pumps containing normal saline. In a fifth experiment a group of mice received hexanoic acid 3-(3,4,5-trihydroxy-6-phosphonooxymethyl-tetrahydro-pyran-2-yl)-propyl ester sodium salt via one-week delivery Alzet 2001 mini-osmotic pumps that were placed subcutaneously. This compound was delivered at 40 mg/kg/day. The control group for this experiment received identical mini-osmotic pumps containing normal saline.
Twenty-four hours after challenge the mice were lightly anesthetised with diethyl ether and the thickness of the left and right pinnae measured (in millimeters) using a dial gauge micrometer (Interapid, Switzerland). Care was taken to measure only the outer two thirds of the ear. The increase in ear thickness initiated by the DTH response was determined by subtracting the measurement of the left ear (untreated) from the right ear (challenged).
In Table 4, values in the columns labeled Left and Right are measurements of ear thickness in millimeters of the control and challenged ears respectively.

[3] = system: passively transferred EAE; assay: Passively transferred EAE induced with concanavalin A stimulated spleen lymphoblasts (Example 24); assay type: in vivo, Lewis rats; set-up: key to Clinical score - Treated, Mean: 0 = asymptomatic to 5 = hind limb paralysis; details: 50 mg/kg/day subcutaneously; for Clinical score - Treated, Mean: group mean; for Clinical score - Treated: individual rats, scale 0 to 5, monosodium salt, 50 mg/kg/day
Description: In a similar type of experiment outlined in Example 20, and in order to study the effect of the agents of the present invention in vivo on a disease caused by T lymphocyte migration into a specific tissue, further experiments were performed in a Lewis rat model of passively transferred EAE. Here, myelin basic protein (MBP)-specific T lymphocytes were generated in spleens of Lewis rats that had been immunised with guinea pig MBP in Freund's complete adjuvant. Thus, in this manner donor T lymphocytes were generated from male 12-20 week old Lewis rats weighing 200 to 250 g. These rats were injected intradermally in a footpad of each hind foot with an emulsion of guinea pig myelin basic protein (MBP; prepared according to the method of Deibler et al., 1972; incorporated herein by reference) in Freund's complete adjuvant (0.1 ml). The adjuvant emulsion was prepared by emulsifying equal volumes of a mixture of 85% light mineral oil (0.8417 g/mL (Sigma)) plus 15% mannide monooleate (Sigma) containing Mycobacterium butyricum (4 mg/ml; Difco) and normal saline containing guinea pig myelin basic protein (0.25 mg/ml). Thus, the total dose per rat was 25 micrograms of MBP and 400 micrograms of M. butyricum. Ten days following injection, the rats were euthanased and the spleens removed aseptically by blunt dissection and placed into mixed lymphocyte culture medium. This medium was prepared in the normal fashion from Dulbecco's Modified Eagle's Medium (DMEM; GIBCO, Grand Island, N.Y.) supplemented with glucose (4 g/L), folic acid (6 mg/L), L-asparagine (36 mg/L), sodium bicarbonate (2 g/L), L-arginine (116 mg/L), L-glutamine (2 mM), sodium pyruvate (1 mM), HEPES (10 mM), 2-mercaptoethanol (5×10^−5 M), penicillin, streptomycin, neomycin, and 10% fetal calf serum. A single cell suspension was prepared from the spleens in the usual manner by gently pushing them through a stainless steel screen. The cells were washed twice and cultured asceptically for 72 hours at 37° C. in a humidified atmosphere containing 5% carbon dioxide at a concentration of 2 million cells per milliliter in the presence of concanavalin A (2 microgram/mL). The cells were collected and washed twice in Hanks balanced salt solution. Cells were resuspended in Hanks balanced salt solution and each recipient animal (10-12 weeks old female Lewis rats; 160-180 g) received 40-42.5 million lymphoblasts by lateral tail vein injection in a volume of 0.5 ml.
In a typical experiment 4-5 recipient rats were anesthetised with diethyl ether and implanted with mini-osmotic pumps (Alzet 2001, Alza Corp., Palo Alto Calif., USA) containing the test compound. A second group of 4 animals, the control group, under ether anesthesia, were implanted with Alzet 2001 pumps containing normal saline. Mini-osmotic pumps were implanted three days after cell transfer. Disease severity (clinical score) was scored on an arbitrary scale of severity ranging from 0 to 5 as follows: 0, asymptomatic; 1, flaccid distal half of tail; 2, entire tail flaccid; 3, ataxia, difficulty in righting reflex; 4, hind limb weakness; 5, hind limb paralysis. Mean maximum clinical scores were calculated and the disease index (DI) for each group was calculated as described in Example 20. The results of these experiments are outlined in Tables 6, 7 and 8.

## CCCC1OC(COP(=O)([O-])O)C(O)C(O)C1O.[Na+] (stereo not drawn) [phosphoric acid mono-(6-propyl-3,4,5-trihydroxy-tetrahydro-pyran-2-ylmethyl) ester mono sodium salt]
[1]; 45 mg/kg/rat/day, control group 5/5
  drug-treated animals that developed disease: 3/5
[1]; day 6 post lymphocyte transfer, histology
  lesions per section in the most affected animal: no more than 8 lesions per section
[1]; day 6 post lymphocyte transfer, histology, control approximately 15 lesions/section
  average lesions (per section) in spinal cord: 3.5 lesions
[1]; treated group, 45 mg/kg/rat/day, control group 2.0
  Mean maximum clinical score: 1.0
[1]; treated group, 45 mg/kg/rat/day, control group DI 160
  disease index (DI): 40

## CCCCCCOCCCC1OC(COP(=O)([O-])O)C(O)C(O)C1O.[Na+] (stereo not drawn) [phosphoric acid mono-[6-(3-hexyloxy-propyl)-3,4,5-trihydroxy-tetrahydro-pyran-2-ylmethyl] ester, monosodium salt]
[2]; 50 mg/kg/day intraperitoneally, versus saline controls
  Mean percentage decrease in ear swelling in treated animals: Mean percentage decrease in ear swelling in treated animals: 36.7%
[2]; group mean, 50 mg/kg/day intraperitoneally, saline control mean 0.098
  Mean Difference, Treated: 0.062 millimeters
[2]; individual mice, 50 mg/kg/day, mini-osmotic pump intraperitoneally, 24 hours after challenge, monosodium salt
  Difference (right minus left ear), Treated: 0.03 millimeters and 0.05 millimeters (2×) and 0.08 millimeters and 0.1 millimeters
[2]; individual mice, challenged ear, 50 mg/kg/day, mini-osmotic pump intraperitoneally, 24 hours after challenge, monosodium salt
  Right ear thickness, Treated: 0.25 millimeters (2×) and 0.26 millimeters and 0.3 millimeters and 0.32 millimeters
[2]; individual mice, control (unchallenged) ear, 50 mg/kg/day, mini-osmotic pump intraperitoneally, 24 hours after challenge, monosodium salt
  Left ear thickness, Treated: 0.22 millimeters (3×) and 0.21 millimeters and 0.2 millimeters
[3]; day 5
  Clinical score - Treated, Mean: 1
  Clinical score - Treated: 0.5 (2×) and 1 and 2
[3]; day 6
  Clinical score - Treated, Mean: 2.75
  Clinical score - Treated: 3 and 2 (2×) and 4
[3]; day 7
  Clinical score - Treated, Mean: 2.5
  Clinical score - Treated: 2 (3×) and 4
[3]; day 8
  Clinical score - Treated, Mean: 2.25
  Clinical score - Treated: 2 (3×) and 3
[3]; day 9
  Clinical score - Treated, Mean: 1.25
  Clinical score - Treated: 1 (2×) and 1.5 (2×)
[3]; day 10
  Clinical score - Treated, Mean: 0.5
  Clinical score - Treated: 0 (2×) and 1 (2×)
[3]; treated group, control 4.5
  Mean maximum clinical score: clinical score 3
[3]; treated group, control DI 67.2
  DI (disease index): DI - 34.1 Mean maximum
